Measured values from patent US20240024302A1, “SOLUBLE EPOXIDE HYDROLASE (sEH) INHIBITORS AND DUAL COX/sEH INHIBITORS FOR THE TREATMENT OF ARRHYTHMOGENIC CARDIOMYOPATHY” (BETH ISRAEL DEACONESS MEDICAL CENTER, INC., priority 2020, published 2024).

Columns and labels:
[1] = Mouse PK, single oral gavage; conditions: single dose 0.3 mg/kg; for AUC: Mouse AUC; for half-life: Mouse T1/2, oral gavage; for Tmax: Mouse Tmax
[2] = Rat PK, single oral gavage; format: in vivo; conditions: single dose 0.1 mg/kg; for AUC / Rat AUC: PEG 300; for half-life: read-out: Rat T1/2 (converted)
[3] = mouse, in vivo, po, 0.3 mg/kg, oral gavage, 20% PEG400 in oleic acid-rich triglyceride
[4] = mouse, in vivo, po, 0.3 mg/kg, Mouse Cmax, oral gavage
[5] = mouse, in vivo, po, 0.3 mg/kg, oral gavage

| Compound | AUC [1, 3] [µM·h] | Cmax [1, 4] [nM] | half-life ([1]; mouse, in vivo, po, 0.3 mg/kg) [h] | Tmax [1, 5] [h] | Cmax ([2]; rat, in vivo) [nM] | Tmax ([2]; rat, in vivo) [h] | AUC ([2]; rat, in vivo) [µM·h] | half-life ([2]; rat, in vivo) [h] | Cmax [2] [nM] | Rat T1/2 [2] [h] | Rat Tmax [2] [h] | Rat AUC [2] [µM·h] | Mouse T1/2 ([1]; oral gavage) [h] | Mouse AUC ([1]; oral gavage, 20% PEG400 in oleic acid-rich triglyceride) [µM·h] | Cmax ([1]; read-out: Mouse Cmax, oral gavage) [nM] |
| --- | --- | --- | --- | --- | --- | --- | --- | --- | --- | --- | --- | --- | --- | --- | --- |
| O=C(Nc1ccc(OC(F)(F)F)cc1)NC1CCN(C(=O)[C@@H]2CCOC2)CC1 | 0.656 | 50 | 3.4 | 6.2 |  |  |  |  |  |  |  |  |  |  |  |
| Cc1occc1C(=O)N1CCC(NC(=O)Nc2ccc(OC(F)(F)F)cc2)CC1 | 9.99 | 409 | 6.2 | 9 | 133 ± 4 | 2.3 ± 0.4 | 1.08 ± 0.089 | 6 ± 0.7 |  |  |  |  |  |  |  |
| O=C(Nc1ccc(C(F)(F)F)cc1)NC1CCN(C(=O)c2ccoc2)CC1 | 0.794 | 28 | 4.2 | 7.3 | 308 ± 16 | 3.4 ± 0.3 | 3.55 ± 0.271 | 4.4 ± 0.4 |  |  |  |  |  |  |  |
| O=C(O)CC1(CC(=O)N2CCC(NC(=O)Nc3ccc(C(F)(F)F)cc3)CC2)CCCCC1 | 11.6 | 590 | 5 | 7.4 |  |  |  |  |  |  |  |  |  |  |  |
| O=C(Nc1ccc(C(F)(F)F)cc1)NC1CCN(C(=O)C2CCCOC2)CC1 (stereo not drawn) | 3.17 | 199 | 4.1 | 5.9 |  |  |  |  |  |  |  |  |  |  |  |
| O=C(Nc1ccc(C(F)(F)F)cc1)NC1CCN(C(=O)[C@@H]2CCOC2)CC1 | 0.729 | 154 | 1.2 | 1.7 |  |  |  |  |  |  |  |  |  |  |  |
| O=C(Nc1ccc(OC(F)(F)F)cc1)NC1CCN(C(=O)c2ccoc2)CC1 | 2.93 | 146 | 5.1 | 7.3 |  |  |  |  |  |  |  |  |  |  |  |
| O=C(Nc1ccc(OC(F)(F)F)cc1)NC1CCN(C(=O)C2=COCC2)CC1 | 0.67 | 58 | 2.9 | 4.2 |  |  |  |  |  |  |  |  |  |  |  |
| O=C(Nc1ccc(OC(F)(F)F)cc1)NC1CCN(C(=O)C2CCCOC2)CC1 (stereo not drawn) | 0.634 | 31 | 5.3 | 7.6 |  |  |  |  |  |  |  |  |  |  |  |
| O=C(Nc1ccc(OC(F)(F)F)cc1)NC1CCN(C(=O)C2CCOCC2)CC1 | 5.06 | 460 | 2.8 | 4.1 | 23 ± 1 | 4.4 ± 0.2 | 0.234 ± 0.019 | 3.7 ± 0.6 |  |  |  |  |  |  |  |
| O=C(Nc1ccc(C(F)(F)F)c(F)c1)NC1CCN(C(=O)C2CCOCC2)CC1 | 0.0988 ± 0.0002 |  |  |  | 139 ± 9 | 4 ± 0.4 | 1.65 ± 0.042 | 4.5 ± 0.4 |  |  |  |  |  |  |  |
| O=C(Nc1ccc(OC(F)(F)F)cc1)NC1CCN(C(=O)C2CCOC2)CC1 (stereo not drawn) | 12.6 | 703 | 4.6 | 6.6 |  |  |  |  |  |  |  |  |  |  |  |
| O=C(Nc1ccc(C(F)(F)F)cc1)NC1CCN(C(=O)C2=COCC2)CC1 | 0.875 | 78 | 2.8 | 4.1 |  |  |  |  |  |  |  |  |  |  |  |
| O=C(Nc1ccc(C(F)(F)F)cc1)NC1CCN(C(=O)C2(C(F)(F)F)CC2)CC1 |  | 6490 | 356 | 4.7 |  |  |  |  |  |  |  |  |  |  |  |
| CCC(=O)N1CCC(NC(=O)Nc2ccc(OC(F)(F)F)cc2)CC1 [drawing 62] |  |  |  |  | 133 ± 4 | 2.3 ± 0.4 | 1.08 ± 0.089 | 6 ± 0.7 |  |  |  |  | 12.1 | 10.65 | 495 |
| O=C(Nc1ccc(C(F)(F)F)cc1)NC1CCN(C(=O)C2CCOCC2)CC1 | 5.26 | 376 | 3.6 | 5.2 | 54 ± 3 | 2.5 ± 0.2 | 0.391 ± 0.031 | 3 ± 0.4 |  |  |  |  |  |  |  |
| O=C(Nc1ccc(C(F)(F)F)cc1)NC1CCN(C(=O)C2CCOC2)CC1 (stereo not drawn) | 4.73 | 342 | 6.9 | 6.8 |  |  |  |  |  |  |  |  |  |  |  |
| O=C(Nc1ccc(C(F)(F)F)cc1)NC1CCN(C(=O)c2cc[nH]c2)CC1 | 0.083 | 11 | 2 | 2.8 |  |  |  |  |  |  |  |  |  |  |  |

Continued, in another order:

| AUC [1, 3] [µM·h] | Cmax [1, 4] [nM] | half-life ([1]; mouse, in vivo, po, 0.3 mg/kg) [h] | Tmax [1, 5] [h] | Cmax ([2]; rat, in vivo) [nM] | Tmax ([2]; rat, in vivo) [h] | AUC ([2]; rat, in vivo) [µM·h] | half-life ([2]; rat, in vivo) [h] | Cmax [2] [nM] | Rat T1/2 [2] [h] | Rat Tmax [2] [h] | Rat AUC [2] [µM·h] | Compound | Mouse T1/2 ([1]; oral gavage) [h] | Mouse AUC ([1]; oral gavage, 20% PEG400 in oleic acid-rich triglyceride) [µM·h] | Cmax ([1]; read-out: Mouse Cmax, oral gavage) [nM] |
| --- | --- | --- | --- | --- | --- | --- | --- | --- | --- | --- | --- | --- | --- | --- | --- |
|  |  |  |  | 17 ± 2 | 1.6 ± 0.1 | 0.066 ± 0.011 | 1.2 ± 0.2 |  |  |  |  | CC(C)C(=O)N1CCC(CC(=O)Nc2ccc(OC(F)(F)F)c(F)c2)CC1 |  |  |  |
| 0.0995 ± 0.0001 |  |  |  | 3.6 ± 0.6 | 1.4 ± 0.1 | 0.016 ± 0.001 | 0.9 ± 0.1 |  |  |  |  | CC[C@H](C)C(=O)N1CCC(CC(=O)Nc2ccc(OC(F)(F)F)c(F)c2)CC1 |  |  |  |
| 4.78 | 162 | 4.8 | 5.9 | 84 ± 5 | 2.8 ± 0.3 | 0.637 ± 0.085 | 2.7 ± 0.4 |  |  |  |  | CC(C)C(=O)N1CCC(NC(=O)Nc2ccc(OC(F)(F)F)c(F)c2)CC1 |  |  |  |
| 0.0982 ± 0.0001 |  |  |  | 40 ± 2 | 2.9 ± 0.3 | 0.327 ± 0.032 | 3.6 ± 0.6 |  |  |  |  | O=C(Nc1ccc(OC(F)(F)F)c(F)c1)NC1CCN(C(=O)N2CCOCC2)CC1 |  |  |  |
| 0.0997 ± 0.0001 |  |  |  | 41 ± 3 | 4.3 ± 0.4 | 0.486 ± 0.087 | 2.9 ± 0.3 |  |  |  |  | O=C(Nc1ccc(OC(F)(F)F)c(F)c1)NC1CCN(C(=O)C2(C(F)(F)F)CC2)CC1 |  |  |  |
| 0.0985 ± 0.0001 |  |  |  | 103 ± 8 | 3.1 ± 0.2 | 1.24 ± 0.063 | 6.2 ± 0.4 |  |  |  |  | O=C(Nc1ccc(OC(F)(F)F)c(F)c1)NC1CCN(C(=O)C2CCOCC2)CC1 |  |  |  |
| 0.0994 ± 0.0001 | 24700 | 1050 | 6 | 43 ± 3 | 2.6 ± 0.2 | 0.328 ± 0.018 | 3.7 ± 0.5 |  |  |  |  | O=C(Nc1ccc(OC(F)(F)F)c(F)c1)NC1CCN(C(=O)C2CCCOC2)CC1 (stereo not drawn) |  |  |  |
| 20.6 | 978 | 5.4 | 8 |  |  |  |  | 196 ± 12 | 4.2 ± 0.8 | 4.5 ± 0.5 | 2.701 ± 0.357 | CCC(=O)N1CCC(NC(=O)Nc2ccc(OC(F)(F)F)c(F)c2)CC1 |  |  |  |
| 0.0973 ± 0.0001 | 2550 | 174 | 3.7 | 84 ± 6 | 2.9 ± 0.3 | 0.869 ± 0.127 | 3.8 ± 0.6 |  |  |  |  | O=C(Nc1ccc(OC(F)(F)F)c(F)c1)NC1CCN(C(=O)[C@@H]2CCOC2)CC1 |  |  |  |
| ≥ 0.0999 |  |  |  | 11 ± 1 | 2.5 ± 0.2 | 0.075 ± 0.006 | 2.3 ± 0.4 |  |  |  |  | CC[C@H](C)C(=O)N1CCC(NC(=O)Nc2ccc(OC(F)(F)F)c(OC(F)(F)F)c2)CC1 |  |  |  |
| 9.65 | 518 | 6.2 | 7.9 | 38 ± 3 | 1.8 ± 0.2 | 0.212 ± 0.022 | 2.4 ± 0.3 |  |  |  |  | CC(C)C(=O)N1CCC(NC(=O)Nc2ccc(C(F)(F)F)c(F)c2)CC1 |  |  |  |
| 4.56 | 294 | 3.9 | 5.7 |  |  |  |  |  |  |  |  | Cc1ccoc1C(=O)N1CCC(NC(=O)Nc2ccc(OC(F)(F)F)cc2)CC1 |  |  |  |
| ≥ 0.0999 |  |  |  | 105 ± 16 | 3.7 ± 0.5 | 1.33 ± 0.093 | 4.7 ± 0.8 |  |  |  |  | CCOC(=O)N1CCC(NC(=O)Nc2ccc(OC(F)(F)F)c(F)c2)CC1 |  |  |  |
| 5.59 | 282 | 5.1 | 7.6 |  |  |  |  | 95 ± 3 | 2.9 ± 0.3 | 4.0 ± 0.1 | 1.027 ± 0.065 | O=C(Nc1ccc(OC(F)(F)F)c(F)c1)NC1CCN(C(=O)C2CC2)CC1 |  |  |  |
